Experimental data taken from US10548829B2, “Oral care compositions and methods of use” (priority 2016, dated 2020).

Columns and labels:
[1] = Growth inhibition (OD610), mixed chemostat culture; assay type: cell-based, A. viscosus, L. casei, S. oralis, F. nucleatum, V. parvula; settings: Mixed species incubated in 37° C.
Protocol: Single species of Streptococcus gordonii (S. gordonii, S.g) strain V288 (ATCC #35105), Streptococcus sobrinus (S. sobrinus, S.$) strain SL1[CCM 6070, CNCTC 9/89] (ATCC #33478), or Aggregatibacter actinomycetemcomitans were analyzed. Also, a mixed culture containing Actinomyces viscosus (A. viscosus, A.v) strain (ATCC, #43146), Lactobacillus casei (L. casei, L.c) strain (ATCC #334), Streptococcus oralis (S. oralis, S. o) strain (ATCC #35037), Fusobacterium nucleatum (F. nucleatum, F. n) strain (ATCC #10953), and Veilonella parvula (V. parvula, V. p) strain (ATCC #17745) was also analyzed for growth inhibition/toxicity activity. Bacteria were cultured overnight in approximately 20 ml of BHI broth (BD, cat #237500) or maintained in a specialized complex modified BHI II medium in a continuous culture chemostat at 37° C. respectively. The following day, the OD610 were determined and solutions diluted to an OD610 of 0.2 or 0.1 respectively for the assay.
Triclosan (positive control) was prepared as a 10% stock in 100% EtOH and 3 fold serial dilutions were performed in 100% EtOH. An appropriate amount of the diluted samples was then transferred into a 96 well clear plate such that the resulting final concentration of the test samples ranged from either a 2 mM or 4 mM (highest concentration) to 0.0078 mM or 0.0156 mM (lowest concentration respectively) in 2% DMSO in 100 μl media per well. Triclosan (TCN) ranged from 0.01% to 1.67e-6% in 1% EtOH. For Zinc acetate, in order to mimic the 2:1 molar ratio (ligand:Zinc) in the Naringin:Zinc complex, the final concentration ranged from 0.7 mM to 0.0027 mM for samples with 2 mM as the highest concentration and 1.33 mM to […] for samples with 4 mM as the highest concentration in 2% DMSO. Next, 100 μl of bacterial culture at OD610 0.2 were introduced to the wells with the test samples. The wells were thoroughly mixed and incubated at 37° C. overnight. The plates were read using an Envision plate reader (PerkinElmer, Waltham, Mass.) at 610 nm.
The IC50 for the complex, Product 5, was determined for Streptococcus gordonii (S. gordonii), Streptococcus sobrinus (S. sobrinus), Aggregatibacter actinomycetemcomitans (A. actinomycetemcomitans), and also for the mixed bacterial culture. […] Triclosan (TCN) was included as a positive control for bacterial inhibition.
Antimicrobial characterization was also performed on mixed culture solutions having at least five microbial species present. A mixed culture containing Actinomyces viscosus (A. viscosus, A.v) (ATCC, #43146), Lactobacillus casei (L. casei, L.c) (ATCC #334), Streptococcus oralis (S. oralis, S.o) (ATCC #35037), Fusobacterium nucleatum (F. nucleatum, F.n) (ATCC #10953) and Veilonella parvula (V. parvula, V.p) (ATCC #17745) was maintained in a specialized complex medium (Modified BHI II Medium) in a continuous culture chemostat at 37° C. Approximately 10 ml of the culture was removed and the OD610 was determined. The assay was performed using cultures at two concentrations; 0.03 and 0.1 at OD610. […] Triclosan (positive control) was prepared as a 10% stock in 100% EtOH and 3 fold serial dilutions were performed in 100% EtOH. […] For Zinc Acetate, in order to mimic the 2:1 ratio (ligand:Zinc) composition as in the complex, the final concentration range from 0.7 mM to 0.0027 mM in 2% DMSO was used instead.
A 100 μl of bacterial culture at chosen OD610 (0.03 or 0.1) was introduced into the wells with the test samples. The wells were thoroughly mixed and plates incubated overnight in a 37° C. incubator with or without 5% CO2. After approximately 12-13 hours of treatment, the plate was read using Envision plate reader (Serial #1040984), absorbance at 610 nm. The % inhibition relative to control was determined as described for previously described antimicrobial protocols, supra.

[2] = tested on: A. actinomycetemcomitans/S. sobrinus; experiment: Growth inhibition (OD610), co-culture; assay type: cell-based, A. actinomycetemcomitans and S. sobrinus
S. gordonii/A. viscosus = experiment: Growth inhibition (OD610), co-culture; assay type: cell-based, S. gordonii and A. viscosus
Protocol: Further characterization was performed on planktonic oral microbes; Streptococcus sobrinus (Cariongenic—strain-SL1[CCM 6070, CNCTC 9/89] (ATCC cat. #33478), Streptococcus gordonii (Arginolytic—strain V288 (ATCC cat. #35105), Actinomyces viscosus) as well late colonizer (Gram −), pathogenic Aggregatibacter actinomycetemcomitans. All microbes were grown in their respective culture media: Streptococcus sobrinus and Streptococcus gordonii in BHI broth (BD, cat #237500), Aggregatibacter actinomycetemcomitans in BHI broth supplemented with 0.5% Yeast Extract (BD, cat #210941) and Actinomyces viscosus in Trypticase Soy Broth (BD, cat #211768) supplemented with 0.5% Yeast Extract (BD, cat #210941). Bacteria were cultured overnight in 37° C., 5% CO2 in approximately 20 ml of the appropriate culture broth. The following day, the OD610 was determined and solutions were diluted to 0.2 for the assay.
Test samples (Naringin, Naringin:Zinc complex and Naringin+Zinc Acetate (combination)) were prepared as a 100 mM stock solution followed by 2 fold serial dilution in 100% DMSO. Triclosan (positive control) was prepared as a 10% stock in 100% EtOH and 3 fold serial dilutions were done in 100% EtOH. […]
After approximately 12-13 hours of treatment, the plate was read at 610 nm using an Envision plate reader (PerkinElmer, Waltham, Mass.). The % inhibition relative to control was determined as follows: […]

[3] = 0.5 mM (combination 0.5 mM total)

SMILES	inhibition at 250 µM ([1]; 5% CO2 (anaerobic), 0.25 mM (combination 0.1625 mM + 0.0875 mM, 0.25 mM total)) [%]	inhibition at 250 µM ([1]; Air (aerobic), 0.25 mM (combination 0.25 mM total)) [%]	inhibition at 500 µM [2, 3] [%]	inhibition at 500 µM (S. gordonii/A. viscosus; [3]) [%]	% Inhibition ([2]; 0.175 mM) [%]	% Inhibition (S. gordonii/A. viscosus; 0.175 mM) [%]
C[C@@H]1O[C@@H](O[C@H]2[C@H](Oc3cc(O)c4c(c3)O[C@H](c3ccc(O)cc3)CC4=O)O[C@H](CO)[C@@H](O)[C@@H]2O)[C@H](O)[C@H](O)[C@H]1O [Naringin]	3.51 ± 1.53	3.1 ± 3.31	0.33 ± 3.48	-2.39 ± 5.68	–	–
CC(=O)[O-].CC(=O)[O-].[Zn+2] [Zinc Acetate alone, Zinc (II) Acetate]	–	–	–	–	6.58 ± 5.36	−0.74 ± 6.34
